PubChem BioAssay (NCI)
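How tested: cells in 96-well plates exposed to compound for 48 hours at five concentrations. GI50 = concentration required for 50% inhibition of growth. TGI: concentration producing complete growth inhibition.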

What was measured:
Test in all cases: inhibition of tumour cell growth, NCI panel, 48 h
SK-MEL-2 melanoma = system: SK-MEL-2 melanoma
BT-549 breast = system: BT-549 breast
HOP-62 NSCLC = system: HOP-62 NSCLC
TK-10 renal = system: TK-10 renal
NCI-H460 lung = system: NCI-H460 lung
RXF 393 renal = system: RXF 393 renal
HT29 colon = system: HT29 colon
CCRF-CEM leukemia = system: CCRF-CEM leukemia
U251 CNS = system: U251 CNS
EKVX NSCLC = system: EKVX NSCLC

Row | Structure (SMILES) | GI50 (SK-MEL-2 melanoma) [µM] | TGI (SK-MEL-2 melanoma) [µM] | GI50 (BT-549 breast) [µM] | TGI (BT-549 breast) [µM] | GI50 (HOP-62 NSCLC) [µM] | TGI (HOP-62 NSCLC) [µM] | GI50 (TK-10 renal) [µM] | TGI (TK-10 renal) [µM] | GI50 (NCI-H460 lung) [µM] | TGI (NCI-H460 lung) [µM] | GI50 (RXF 393 renal) [µM] | TGI (RXF 393 renal) [µM] | GI50 (HT29 colon) [µM] | TGI (HT29 colon) [µM] | GI50 (CCRF-CEM leukemia) [µM] | TGI (CCRF-CEM leukemia) [µM] | GI50 (U251 CNS) [µM] | TGI (U251 CNS) [µM] | TGI (EKVX NSCLC) [µM] | GI50 (EKVX NSCLC) [µM]
1 | CC(=O)OC1CCC2(C)C(=CCC3C4CC(CN5CC5)C(=O)C4(C)CCC32)C1 (stereo unspecified) | 14 | 28.2 | 10.4 | 22.9 | 18.8 | 33.6 | 1.89 | 3.82 | 12.2 | 29.5 | 9.77 | 24.1 | 3.39 | 12.6 | 2.79 | 11.4 | 13.6 | 27.6 | – | –
2 | Brc1ccc2c(c1)-c1ccccc1C1=NCCN12 | 1.87 | 4.18 | 1.88 | 6.07 | 0.962 | 8.02 | 1.5 | 7.18 | 0.399 | 2.71 | 1.29 | 3.23 | 0.478 | 3.33 | 1.74 | 4.93 | 1.24 | 11.1 | – | –
3 | COc1ccc(S(=O)(=O)NCCCNc2nccc(-c3c(-c4ccc(F)cc4)nc4sccn34)n2)cc1 | 12.4 | 50.3 | 5.42 | 59.4 | 18 | > 100 | 11.8 | > 100 | 4.33 | > 100 | 3.36 | 76.7 | 2.84 | 20.2 | 4.42 | > 100 | 7.26 | > 100 | – | –
4 | Cc1[nH]n(C(=O)c2ccc(Cl)cc2)c(=O)c1/C=C1\C(O)=CC(=O)c2ccccc21 | – | > 100 | – | – | – | > 100 | – | > 100 | – | > 100 | – | > 100 | – | > 100 | – | > 100 | – | > 100 | > 100 | –
5 | CS(=O)(=O)Nc1ccc(Nc2c3ccccc3nc3cc(Cl)ccc23)cc1 | 9.16 | 22.7 | 3.16 | 20 | 0.958 | 18 | 5.07 | 18.7 | 0.0962 | 11 | 1.77 | 10.6 | 2.57 | 14.1 | 0.317 | 33.7 | 0.828 | 13.5 | – | –
6 | Cc1nc(-c2cccnc2)sc1C(=O)/C=C/c1ccc(Cl)cc1Cl | – | > 100 | – | – | – | > 100 | – | > 100 | – | > 100 | – | > 100 | – | > 100 | – | > 100 | – | > 100 | > 100 | –
7 | COc1cccc(OC)c1/C=N\N1C(=O)c2ccccc2C1=O | – | > 100 | – | – | – | > 100 | – | > 100 | – | > 100 | – | 62.1 | – | > 100 | – | > 100 | – | – | > 100 | –
8 | COc1ccc(-c2ccc(/C=N/n3c(COc4ccc(Cl)c(C)c4)nn(CN4CCOCC4)c3=S)o2)c([N+](=O)[O-])c1 | – | – | 34.6 | 85 | 38.6 | > 100 | 16.5 | 50.5 | 18.5 | 55.8 | 19.1 | 52.7 | 21.6 | 51.2 | 19.3 | 56.2 | 30.5 | > 100 | > 100 | 26.4
9 | CCCCCCCCCCCCCCCC(=O)NCC(OCC)OCC | – | > 100 | – | – | – | > 100 | – | > 100 | – | > 100 | – | > 100 | – | > 100 | – | > 100 | – | > 100 | > 100 | –
10 | CC(C)=NO.CC(C)=NO.CC(C)=NO.CC(C)=NO.[Ti] | > 100 | > 100 | – | – | > 100 | > 100 | > 100 | > 100 | > 100 | > 100 | > 100 | > 100 | > 100 | > 100 | > 100 | > 100 | > 100 | > 100 | > 100 | > 100
11 | OCCn1c(-c2ccncc2)c(-c2ccc(F)cc2)c2ncccc21 | > 25 | > 25 | > 25 | > 25 | > 25 | > 25 | > 25 | > 25 | > 25 | > 25 | > 25 | > 25 | > 25 | > 25 | > 25 | > 25 | > 25 | > 25 | – | –
12 | CCOC(=O)c1c(/C=N\Nc2ccccc2)nc2ccccc2c1-c1ccccc1 | – | > 100 | – | – | – | > 100 | – | > 100 | – | > 100 | – | > 100 | – | > 100 | – | 88 | – | > 100 | > 100 | –
13 | COc1cc(/C=C/C(=O)c2c(-c3ccc(Cl)cc3)nc3sc(C)nn23)cc(OC)c1OC | – | – | 7.77 | 77.7 | 10.4 | > 100 | 27.1 | > 100 | > 100 | > 100 | 17.3 | > 100 | 77.7 | > 100 | 3.92 | 87.7 | 17.1 | > 100 | – | –
14 | COc1cc([C@H]2c3cc(O)c(OC)cc3C[C@]3(O)[C@@H]2CO[C@@H]3O)ccc1O | – | > 100 | – | > 100 | – | > 100 | – | > 100 | – | > 100 | – | – | – | > 100 | – | > 100 | – | > 100 | > 100 | –
15 | COc1ccc(C[C@H](N)C(=O)N[C@@H]2[C@@H](CO)OC(n3cnc4c(N(C)C)ncnc43)[C@@H]2O)cc1 (stereo partly specified) | – | 1.23 | 0.588 | 1.83 | – | 1.1 | – | 1.38 | – | 0.889 | 0.216 | 0.831 | – | 1.38 | – | – | 0.136 | 0.507 | 2.55 | 0.614
16 | CCc1c[nH]c2ncnc(N3CC[C@](N)(CNC(=O)c4ccc(F)cc4F)C3)c12 | 28 | > 100 | 0.797 | 18.1 | 12.8 | > 100 | 1.27 | 50.4 | 1.78 | > 100 | 0.244 | 8.02 | 3.1 | > 100 | 2.72 | > 91.2 | 0.76 | > 100 | – | –
